# Read-outs that look alike come from different tables or passages of the source.
# How the values were obtained:
# not told = conditions: 22 °C; cited from earlier work
# [1] = 22° C., cited from earlier work
# [2] = shake-flask, brief shaking, IPM phase analyzed immediately; conditions: 23 ± 1 °C
# [3] = Solubility of prodrug in isopropyl myristate (IPM); conditions: for CIPM, equivalent mg of 5FU/ml: IPM, 23 ± 1° C., value in parentheses; for solubility: isopropyl myristate, organic solvent or mixture
# Procedure: The results from the determination of the physicochemical properties are recorded in the tables as CIPM (the saturated solubility of the prodrug in the isopropyl myristate (IPM) vehicle/formulation in which the prodrug was applied to the mouse skins), K (the partition coefficients of the prodrug between IPM and a pH 4.0 acetate buffer) and Cw (the solubility of the prodrug in pH 4.0 acetate buffer calculated from the partition coefficient and the IPM solubility).
# [4] = 22° C., cited from earlier work; remark: listed apart in the source
# [5] = Diffusion cell experiments: delivery of 5-FU through hairless mouse skin; assay type: in vitro ADME; conditions: for Ji, flux of 5-FU through the skin: from suspensions of prodrugs in IPM, hairless mouse skin; for Cs, amount of 5-FU in the skin: leached from hairless mouse skin in 24 hours subsequent to application of prodrug in vehicle for 48 hours; for Jj, flux of theophylline through the skin after application of the prodrug/formulation (relative damage): theophylline from suspension in PG
# Procedure: The diffusion cell experiments were conducted as described by Sloan et al in J. Invest.
# ^b Flux in mg/cm^2 hour of 5FU from suspensions of prodrugs in
# ^c Amount of 5FU in mg leached from hairless mouse skin in 24 hours
# subsequent to application of prodrug in vehicle for 48 hours.
# ^d Flux in mg/cm^2 hour of theophylline from suspension in PG.
# [6] = 37° C., 0.05 M phosphate buffer pH 7.4, cited from earlier work
# [7] = Partition coefficient between IPM and pH 4.0 acetate buffer; assay type: physicochemical; conditions: 23 ± 1° C.
# From the text: ^a Partition coefficient between IPM and pH 4.0 acetate buffer at 23
# [8] = 37° C., 80% human plasma, cited from earlier work
# [9] = J. Pharm. Sci. 75, 522, Buur et al (1986), compound 11 from Int. J. Pharm. 36, 41 (1987)
# [10] = Buur et al (1986), compound 11 from Buur et al (1987)
# [11] = Int. J. Pharm. 21, 349, Buur et al (1984)
"CIPM, equivalent mg of 5FU/ml [3]",Structure (SMILES),log partition octanol / pH 4.0 acetate buffer (not told) [log10 concentration ratio],"log K, octanol/pH 4.0 acetate buffer [1, 9]",log partition isopropyl myristate / pH 4.0 acetate buffer [2] [concentration ratio],solubility [3] [µg/mL],"Cw, solubility at pH 4.0 acetate buffer [4, 10] [mg/ml]","Ji, flux of 5-FU through the skin [5] [mg/cm^2 hour]","Cs, amount of 5-FU in the skin [5] [mg]","Jj, flux of theophylline through the skin after application of the prodrug/formulation (relative damage) [5] [mg/cm^2 hour]","Half-life, Buffer [6, 10] [min]","K, partition coefficient between IPM and pH 4.0 acetate buffer [7]","Half-life, 80% Plasma [8, 10] [min]","log K, octanol/pH 4.0 acetate buffer [1, 11]","Half-life, Buffer ([6]; Buur et al (1984)) [min]","Half-life, 80% Plasma ([8]; Buur et al (1984)) [min]","Cw, solubility at pH 4.0 acetate buffer ([4]; Buur et al (1984)) [mg/ml]"
81.4 equivalent mg of 5FU/ml,CCCC(=O)n1cc(F)c(=O)n(C(=O)CCC)c1=O [Compound 19],–,–,–,169000,–,0.127,1.54,0.190,–,–,–,–,–,–,–
154 equivalent mg of 5FU/ml,CCCCC(=O)n1cc(F)c(=O)n(C(=O)CCCC)c1=O [Compound 20],–,–,–,352000,–,0.124,1.14,0.156,–,–,–,–,–,–,–
–,CCCCC(=O)n1cc(F)c(=O)[nH]c1=O [Compound 4],–,–,11.3,8390,–,0.133,2.08,0.144,–,11.3,–,–,–,–,–
14.4 equivalent mg of 5FU/ml,CCCCCCCC(=O)n1cc(F)c(=O)[nH]c1=O [Compound 6],–,–,–,28400,–,0.078,1.58,0.129,–,–,–,–,–,–,–
–,COC(=O)n1cc(F)c(=O)[nH]c1=O [Compound 7],-0.68,-0.68,0.026,400,23.3,0.343,1.08,0.337,190,0.026,–,–,–,–,–
4.72 equivalent mg of 5FU/ml,CCCCCCCCOC(=O)n1cc(F)c(=O)[nH]c1=O [Compound 12],–,–,–,10400,–,0.037,0.41,0.323,–,–,–,–,–,–,–
–,CCCOC(=O)n1cc(F)c(=O)[nH]c1=O [Compound 9],–,–,0.359,3280,–,0.294,0.65,0.300,–,0.359,–,–,–,–,–
–,CCCCOC(=O)n1cc(F)c(=O)[nH]c1=O [Compound 10],0.89,0.89,1.46,7770,5.9,0.284,0.54,0.321,550,1.46,3.1,–,–,–,–
–,CC(=O)n1cc(F)c(=O)n(C(C)=O)c1=O [Compound 17],–,–,2.93,5600,–,0.291,1.24,0.282,–,2.93,–,–,–,–,–
–,CCCCCC(=O)n1cc(F)c(=O)[nH]c1=O [Compound 5],–,–,42.9,25700,–,–,1.42,–,–,42.9,–,–,–,–,–
–,CCCCC(=O)n1c(=O)[nH]cc(F)c1=O [Compound 16],–,–,1.65,–,–,0.071,0.38,–,–,1.65,–,–,–,–,–
–,CC(=O)n1cc(F)c(=O)[nH]c1=O [Compound 1],–,–,0.185,3800,–,1.213,8.85,0.296,–,0.185,–,–,–,–,–
–,CCC(=O)n1cc(F)c(=O)n(C(=O)CC)c1=O [Compound 18],–,–,33.8,17400,–,0.090,0.51,0.288,–,33.8,–,–,–,–,–
–,CCCC(=O)n1cc(F)c(=O)[nH]c1=O [Compound 3],–,–,2.69,3480,–,0.168,1.07,0.185,–,2.69,–,–,–,–,–
–,CC(=O)n1c(=O)[nH]cc(F)c1=O [Compound 13],-0.34,–,0.040,74,–,0.575,1.77,0.282,–,0.040,–,-0.34,43,4.6,42.8
–,CCC(=O)n1cc(F)c(=O)[nH]c1=O [Compound 2],–,–,0.764,6770,–,0.560,8.96,0.219,–,0.764,–,–,–,–,–

Structure (SMILES),"CIPM, equivalent mg of 5FU/ml [3]",log partition octanol / pH 4.0 acetate buffer (not told) [log10 concentration ratio],"log K, octanol/pH 4.0 acetate buffer [1, 9]",log partition isopropyl myristate / pH 4.0 acetate buffer [2] [concentration ratio],solubility [3] [µg/mL],"Cw, solubility at pH 4.0 acetate buffer [4, 10] [mg/ml]","Ji, flux of 5-FU through the skin [5] [mg/cm^2 hour]","Cs, amount of 5-FU in the skin [5] [mg]","Jj, flux of theophylline through the skin after application of the prodrug/formulation (relative damage) [5] [mg/cm^2 hour]","Half-life, Buffer [6, 10] [min]","K, partition coefficient between IPM and pH 4.0 acetate buffer [7]","Half-life, 80% Plasma [8, 10] [min]","log K, octanol/pH 4.0 acetate buffer [1, 11]","Half-life, Buffer ([6]; Buur et al (1984)) [min]","Half-life, 80% Plasma ([8]; Buur et al (1984)) [min]","Cw, solubility at pH 4.0 acetate buffer ([4]; Buur et al (1984)) [mg/ml]"
CCOC(=O)n1cc(F)c(=O)[nH]c1=O [Compound 8],1.70 equivalent mg of 5FU/ml,-0.17,-0.17,0.0757,2640,6.9,0.770,2.38,0.357,550,0.0757,2.1,–,–,–,–
CCCC(=O)n1c(=O)[nH]cc(F)c1=O [Compound 15],2.89 equivalent mg of 5FU/ml,0.67,–,0.97,4440,–,–,–,0.204,–,0.97,–,0.67,58,28,–
CCC(=O)n1c(=O)[nH]cc(F)c1=O [Compound 14],1.83 equivalent mg of 5FU/ml,0.19,–,0.088,2620,–,–,–,0.318,–,0.088,–,0.19,50,20,35.3
